Test [1] has as its system C. albicans. The settings on record: reported value; cited from earlier work.
Test [2] has as its system C. albicans. Briefly: Antifungal activity of the formula, disk diffusion method. The settings on record: Candida albicans, 48 h, read-out: diameter inhibition zones. Format: cell-based. The procedure: The antifungal activity of the bacillus (10^8/ml) in the formula was determined using the disk diffusion method and was compared to that of empty formulation (without bacillus) and of ketoconazole 2% w/v in ethylene glycol (FIG. 11). A lawn of C. albicans (100 μl of 10^7 cells/ml) was spread on yeast extract-peptone-dextrose (YPD) agar petri dishes and tested solutions (10 μl ) were loaded on paper filter disks (6 mm in diameter) placed at the center of each dish and incubated at 37° C. for 48 h.
On the technique in general: A growth-free zone around the sample is the usual read-out of agar diffusion tests.

Starred links: 1 amine or outer side, 2 acyl side, 3 side chain; linkers in the order of their positions; H or OH if unused. Positions of bridges follow the written chain, without caps; N, C: chain ends. Non-standard residues stand in square brackets, D forms with d. Residues, ends and D or L forms follow the SMILES beside them. X1 = CC(C)CCCCCCCCC[C@H](CC(=O)[*:1])O[*:2]

Results on two molecules are retold here after patent US11633434B2, “Topical kits and compositions and use thereof” (priority 2017, dated 2023).

As for `CC(C)CCCCCCCCC[C@@H]1CC(=O)N[C@@H](CCC(=O)O)C(=O)N[C@@H](CC(C)C)C(=O)N[C@H](CC(C)C)C(=O)N[C@@H](C(C)C)C(=O)N[C@@H](CC(=O)O)C(=O)N[C@H](CC(C)C)C(=O)N[C@@H](CC(C)C)C(=O)O1` [Surfactin C15] (EL[dL]VD[dL]L; linker N-C via X1), the “synergistic anti-fungal MIC” value in the test on C. albicans [1] is 6.25 µg/mL. Take `CC(=O)N1CCN(c2ccc(OCC3COC(Cn4ccnc4)(c4ccc(Cl)cc4Cl)O3)cc2)CC1` (centres unmarked) [ketoconazole]: the zone of inhibition at 2 % strength in the test on C. albicans [2] was determined as 14 mm.
